Test results as given in US9695165B2, “Inhibitors of the fibroblast growth factor receptor” (BLUEPRINT MEDICINES CORPORATION, priority 2014, dated 2017).

Key:
wild type FGFR-4 = wild type FGFR-4 (Homo sapiens (Human), UniProt P22455); test: FGFR-4 wild type assay at Km (Caliper electrophoretic mobility shift); assay type: biochemical; settings: wild type FGFR-4, 400 uM ATP, 25 C, 90 minutes; read-out: FGFR4 IC50
Description: In order to assess the activity of chemical compounds against the relevant kinase of interest, the Caliper LifeSciences electrophoretic mobility shift technology platform is utilized. Fluorescently labeled substrate peptide is incubated in the presence of dosed levels of compounds, a set concentration of kinase and of ATP, so that a reflective proportion of the peptide is phosphorylated. At the end of the reaction, the mix of phosphorylated (product) and non-phosphorylated (substrate) peptides are passed through the microfluidic system of the Caliper LabChip® EZ Reader II, under an applied potential difference. The presence of the phosphate group on the product peptide provides a difference in mass and charge between the product peptide and the substrate peptide, resulting in a separation of the substrate and product pools in the sample. As the pools pass the LEDS within the instrument, these pools are detected and resolved as separate peaks. The ratio between these peaks therefore reflects the activity of the chemical matter at that concentration in that well, under those conditions.
The reaction was stopped by the addition of 70 ul of Stop buffer (100 mM HEPES pH 7.5, 0.015% Brij 35, 35 mM EDTA and 0.2% of Coating Reagent 3 (Caliper Lifesciences)). The plate was then read on a Caliper LabChip® EZ Reader II (protocol settings: −1.9 psi, upstream voltage −700, downstream Voltage −3000, post sample sip 35S).

[1] = system: pMAPK (Thr202/Tyr204) in MDA-MB453 cells; test: Detection of pMAPK (Thr202/Tyr204) using Alpha Elisa (pERK alphaLISA) in MDA-MB453 cells; assay type: cell-based; settings: Homo sapiens, MDA-MB-453, 1 hr incubation with compound
Description: MDA-MB453 cells were plated in 96-well cell culture plates at a density of 1×10^5 cells. Cells were allowed to attach, and growth media was replaced with serum free media. Compounds were added at the indicated concentrations. Following 1 hr incubation in the presence of compound, cells were collected. Cell lysates were prepared and processed according to manufacturer instruction (AlphaScreen® SureFire™ Phospho-ERK 1/2 Kit (Perkin Elmer).

wild type FGFR-4, sequence (P22455 22-802): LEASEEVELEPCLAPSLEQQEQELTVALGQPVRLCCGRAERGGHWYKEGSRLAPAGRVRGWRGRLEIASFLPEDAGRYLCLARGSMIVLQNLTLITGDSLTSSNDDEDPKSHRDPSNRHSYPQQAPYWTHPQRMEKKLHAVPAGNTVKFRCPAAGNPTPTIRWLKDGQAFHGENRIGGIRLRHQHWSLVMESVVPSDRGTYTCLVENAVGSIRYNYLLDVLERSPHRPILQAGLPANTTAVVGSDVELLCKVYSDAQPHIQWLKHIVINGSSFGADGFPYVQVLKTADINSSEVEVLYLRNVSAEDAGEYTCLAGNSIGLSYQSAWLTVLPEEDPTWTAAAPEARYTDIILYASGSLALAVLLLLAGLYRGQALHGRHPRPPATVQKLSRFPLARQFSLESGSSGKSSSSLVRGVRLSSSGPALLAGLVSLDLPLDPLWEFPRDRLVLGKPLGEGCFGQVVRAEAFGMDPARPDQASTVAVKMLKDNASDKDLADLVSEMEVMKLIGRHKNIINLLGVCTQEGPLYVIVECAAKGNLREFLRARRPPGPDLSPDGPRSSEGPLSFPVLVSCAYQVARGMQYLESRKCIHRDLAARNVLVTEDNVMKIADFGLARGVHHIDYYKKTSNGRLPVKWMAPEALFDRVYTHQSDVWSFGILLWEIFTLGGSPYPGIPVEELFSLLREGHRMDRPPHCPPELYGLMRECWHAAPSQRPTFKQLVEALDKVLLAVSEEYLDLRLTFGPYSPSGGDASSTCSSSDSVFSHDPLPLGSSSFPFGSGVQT

SMILES | IC50 (wild type FGFR-4) | IC50 [1]
C=CC(=O)Nc1ccccc1-c1cc2ccc(-c3c(Cl)c(OC)cc(OC)c3Cl)cc2cn1 [Compound 1] | 100 to 1000 nM | 
C=CC(=O)Nc1ccc(C)c(-c2cc3c(cn2)CN(c2c(Cl)c(OC)cc(OC)c2Cl)C(=O)N3CC)c1 [Compound 29] | 10 to 100 nM | 
C=CC(=O)Nc1cc(OC(C)C)cc(-c2cc3c(cn2)cc(-c2c(Cl)c(OC)cc(OC)c2Cl)c(=O)n3C)c1 [Compound 49] | 10 to 100 nM | 
C=CC(=O)N1CC(C)(C)Oc2cc(F)c(-c3ncc4cc(-c5c(Cl)c(OC)cc(OC)c5Cl)ccc4n3)cc21 [Compound 48] | 10 to 100 nM | 
C=CC(=O)N(C)c1cccc(-c2ncc3cc(-c4c(Cl)c(OC)cc(OC)c4Cl)ccc3n2)c1 [Compound 6] | > 1000 nM | 
C=CC(=O)Nc1cccc(-c2cc3c(cn2)CN(c2c(Cl)c(OC)cc(OC)c2Cl)C(=O)N3CC)c1 [Compound 22] | 10 to 100 nM | 10 to 100 nM
C=CC(=O)N1CCc2ccc(-c3ncc4cc(-c5c(Cl)c(OC)cc(OC)c5Cl)c(=O)n(CC)c4n3)cc21 [Compound 35] |  | 10 to 100 nM
C=CC(=O)Nc1ccc(F)c(-c2ncc3cc(-c4c(Cl)c(OC)cc(OC)c4Cl)c(=O)n(CC)c3n2)c1 [Compound 30] |  | < 10 nM
C=CC(=O)Nc1ccccc1-c1ncc2cc(-c3c(Cl)c(OC)cc(OC)c3Cl)c(OC)cc2n1 [Compound 15] | 100 to 1000 nM | 
C=CC(=O)Nc1ccc(C)c(-c2cc3c(cn2)cc(-c2c(Cl)c(OC)cc(OC)c2Cl)c(=O)n3CC)c1 [Compound 27] | 10 to 100 nM | 10 to 100 nM
C=CC(=O)Nc1cccc(-c2ncc3cc(-c4c(Cl)c(OC)cc(OC)c4Cl)ccc3n2)c1 [Compound 3] | > 1000 nM | 
C=CC(=O)Nc1cccc(-c2ncc3cc(-c4c(Cl)c(OC)cc(OC)c4Cl)cc(OC)c3n2)c1 [Compound 13] | 100 to 1000 nM | 
C=CC(=O)Nc1ccc(C)c(-c2ncc3cc(-c4c(Cl)c(OC)cc(OC)c4Cl)ccc3n2)c1 [Compound 5] | > 1000 nM | 
C=CC(=O)N1CCOc2ccc(-c3cc4c(cn3)cc(-c3c(Cl)c(OC)cc(OC)c3Cl)c(=O)n4C3CCCC3)cc21 [Compound 54] | 10 to 100 nM | 
C=CC(=O)N1CCc2ccc(-c3ncc4cc(-c5c(Cl)c(OC)cc(OC)c5Cl)ccc4n3)cc21 [Compound 11] | 10 to 100 nM | 
C=CC(=O)Nc1ccccc1-c1ncc2cc(-c3c(Cl)c(OC)cc(OC)c3Cl)ccc2n1 [Compound 2] | 100 to 1000 nM | 
C=CC(=O)Nc1cccc(F)c1-c1ncc2cc(-c3c(Cl)c(OC)cc(OC)c3Cl)ccc2n1 [Compound 7] |  | 100 to 1000 nM
C=CC(=O)N1CC(C)(C)Oc2cc(C)c(-c3ncc4cc(-c5c(Cl)c(OC)cc(OC)c5Cl)ccc4n3)cc21 [Compound 44] | 10 to 100 nM | 
C=CC(=O)N1CCC(C)(C)c2ccc(-c3ncc4cc(-c5c(Cl)c(OC)cc(OC)c5Cl)ccc4n3)cc21 [Compound 33] | 100 to 1000 nM | 
C=CC(=O)N1CCOc2ccc(-c3ncc4cc(-c5c(Cl)c(OC)cc(OC)c5Cl)c(=O)n(C5CCCC5)c4n3)cc21 [Compound 55] | 10 to 100 nM | 
C=CC(=O)N(C)c1ccccc1-c1cc2c(cn1)cc(-c1c(Cl)c(OC)cc(OC)c1Cl)c(=O)n2CC [Compound 26] | 10 to 100 nM | 
C=CC(=O)N1CC(C)(C)Oc2ccc(-c3cc4c(cn3)cc(-c3c(Cl)c(OC)cc(OC)c3Cl)c(=O)n4CC)cc21 [Compound 52] |  | 10 to 100 nM
C=CC(=O)Nc1ccccc1-c1ncc2cc(-c3c(Cl)c(OC)cc(OC)c3Cl)c(=O)n(C3CCCC3)c2n1 [Compound 46] | 10 to 100 nM | 

Next, values leading:

IC50 (wild type FGFR-4) | IC50 [1] | SMILES
< 10 nM | 10 to 100 nM | C=CC(=O)Nc1ccc(F)c(-c2cc3c(cn2)CN(c2c(Cl)c(OC)cc(OC)c2Cl)C(=O)N3CC)c1 [Compound 32]
10 to 100 nM |  | C=CC(=O)N1CCOc2ccc(-c3ncc4cc(-c5c(Cl)c(OC)cc(OC)c5Cl)ccc4n3)cc21 [Compound 16]
< 10 nM | 10 to 100 nM | C=CC(=O)N1CCOc2ccc(-c3cc4c(cn3)CN(c3c(Cl)c(OC)cc(OC)c3Cl)C(=O)N4CC)cc21 [Compound 50]
10 to 100 nM |  | CCn1c(=O)c(-c2c(Cl)c(OC)cc(OC)c2Cl)cc2cnc(-c3cccc(NC(=O)/C=C/CN(C)C)c3)cc21 [Compound 51]
< 10 nM |  | C=CC(=O)N1CCCc2ccc(-c3cc4c(cn3)cc(-c3c(Cl)c(OC)cc(OC)c3Cl)c(=O)n4CC)cc21 [Compound 45]
< 10 nM | < 10 nM | C=CC(=O)Nc1ccc(F)c(-c2cc3c(cn2)cc(-c2c(F)c(OC)cc(OC)c2F)c(=O)n3C(C)C)c1 [Compound 17]
10 to 100 nM |  | C=CC(=O)N1c2cc(-c3ncc4cc(-c5c(Cl)c(OC)cc(OC)c5Cl)ccc4n3)c(F)cc2OCC1C (stereo not drawn) [Compound 38]
< 10 nM |  | C=CC(=O)Nc1cc(F)c(F)c(-c2cc3c(cn2)cc(-c2c(Cl)c(OC)cc(OC)c2Cl)c(=O)n3CC)c1 [Compound 41]
< 10 nM | 10 to 100 nM | C=CC(=O)N1CCc2cc(F)c(-c3ncc4cc(-c5c(Cl)c(OC)cc(OC)c5Cl)ccc4n3)cc21 [Compound 18]
10 to 100 nM |  | C=CC(=O)Nc1ccc(F)c(-c2ncc3cc(-c4c(Cl)c(OC)cc(OC)c4Cl)c(=O)n(CC)c3n2)c1 [Compound 31]
< 10 nM | < 10 nM | C=CC(=O)Nc1ccc(F)c(-c2cc3c(cn2)cc(-c2cc(OC)cc(OC)c2Cl)c(=O)n3CC)c1 [Compound 12]
10 to 100 nM | 10 to 100 nM | C=CC(=O)N1CC(C)(C)Oc2ccc(-c3ncc4cc(-c5c(Cl)c(OC)cc(OC)c5Cl)ccc4n3)cc21 [Compound 34]
10 to 100 nM | 100 to 1000 nM | C=CC(=O)Nc1ccc(F)c(-c2cc3c(cn2)cc(-c2cc(OC)cc(OC)c2)c(=O)n3C(C)C)c1 [Compound 4]
10 to 100 nM | 10 to 100 nM | C=CC(=O)N1CCOc2cc(C)c(-c3ncc4cc(-c5c(Cl)c(OC)cc(OC)c5Cl)ccc4n3)cc21 [Compound 24]
< 10 nM | 10 to 100 nM | C=CC(=O)Nc1ccccc1-c1cc2c(cn1)cc(-c1c(Cl)c(OC)cc(OC)c1Cl)c(=O)n2CC [Compound 19]
10 to 100 nM |  | C=CC(=O)N1CCOc2ccc(-c3ncc4cc(-c5c(Cl)c(OC)cc(OC)c5Cl)c(OC)cc4n3)cc21 [Compound 36]
< 10 nM |  | C=CC(=O)N1CCOc2ccc(-c3cc4c(cn3)cc(-c3c(Cl)c(OC)cc(OC)c3Cl)c(=O)n4C)cc21 [Compound 37]
< 10 nM | 10 to 100 nM | C=CC(=O)Nc1ccc(F)c(-c2cc3c(cn2)cc(-c2c(Cl)c(OC)cc(OC)c2Cl)c(=O)n3C)c1 [Compound 23]
< 10 nM | 10 to 100 nM | C=CC(=O)Nc1ccc(F)c(-c2cc3c(cn2)cc(-c2cc(OC)cc(OC)c2F)c(=O)n3C(C)C)c1 [Compound 10]
< 10 nM |  | C=CC(=O)N1CCOc2ccc(-c3cc4c(cn3)nc(-c3c(Cl)c(OC)cc(OC)c3Cl)c(=O)n4C3CCCC3)cc21 [Compound 56]
< 10 nM | < 10 nM | C=CC(=O)Nc1ccc(F)c(-c2cc3c(cn2)cc(-c2c(Cl)c(OC)cc(OC)c2Cl)c(=O)n3C(C)C)c1 [Compound 40]
< 10 nM | 10 to 100 nM | C=CC(=O)Nc1ccccc1-c1cc2c(cn1)cc(-c1cc(C(=O)NOC)ccc1Cl)c(=O)n2CC [Compound 9]
< 10 nM | 10 to 100 nM | C=CC(=O)N1c2cc(-c3cc4c(cn3)cc(-c3c(Cl)c(OC)cc(OC)c3Cl)c(=O)n4CC)c(F)cc2OCC1C (stereo not drawn) [Compound 53]
< 10 nM | 10 to 100 nM | C=CC(=O)N1CCOc2ccc(-c3cc4c(cn3)cc(-c3c(Cl)c(OC)cc(OC)c3Cl)c(=O)n4CC)cc21 [Compound 47]
< 10 nM | < 10 nM | C=CC(=O)Nc1ccc(F)c(-c2cc3c(cn2)cc(-c2c(F)c(OC)cc(OC)c2Cl)c(=O)n3CC)c1 [Compound 21]
< 10 nM | 10 to 100 nM | C=CC(=O)N1CCOc2cc(F)c(-c3ncc4cc(-c5c(Cl)c(OC)cc(OC)c5Cl)ccc4n3)cc21 [Compound 28]
< 10 nM | 10 to 100 nM | C=CC(=O)Nc1ccccc1-c1cc2c(cn1)cc(-c1c(Cl)c(OC)cc(OC)c1Cl)c(=O)n2C(C)C [Compound 25]
< 10 nM | < 10 nM | C=CC(=O)Nc1cccc(-c2cc3c(cn2)cc(-c2c(Cl)c(OC)cc(OC)c2Cl)c(=O)n3CC)c1 [Compound 20]
